# In patent US20240335372A1, “Sustained-Release Vaginal Films” (priority 2021, published 2024):
# Like-named read-outs stand apart in the source and are kept apart here.
# What was measured:
# [1] = Macaque (NHP) pharmacokinetic study after vaginal film administration: vaginal swabs, plasma, PBMCs
# Procedure: In NHP film evaluations, both vaginal fluid and blood components (e.g. plasma) samples were collected for at least 31 days post-film administration to assess drug levels and evaluate vaginal release and systemic exposure. […] In study 2, MPT films with increased LNG dose (e.g., 3.5 mg vs. 1 mg) were evaluated. […] Study 3 utilized the same formulation developed for Study 2 by simply replacing LNG with ENG.
# The developed MPT film was administered in six macaques.
# [2] = EFdA-TP elimination half-life in macaques; type: in vivo; conditions: macaques vs humans
# [3] = macaques; cited from earlier work
# [4] = humans; cited from earlier work
# [5] = In vitro drug release of APIs from the extended-release polymer matrix film (Eudragit with PLGA); type: physicochemical; conditions: FIG. 3; API in Eudragit/PLGA film
# Procedure: An initial screening study was conducted to identify suitable polymers for this application.
# Based on visual disintegration it was identified that only the combination of PLGA and Eudragit polymers was successful in extending the disintegration time (FIG. 2). […] This burst release could be attributed to the hydrophilic nature of the drug.
structure (smiles),measurement,setting,value
C#C[C@]1(COP(=O)(O)OP(=O)(O)OP(=O)(O)O)O[C@@H](n2cnc3c(N)nc(F)nc32)C[C@@H]1O [EFdA-TP],day until which PBMC levels were above the target (0.05 pmol/10^6 PBMCs),"[1]; MPT film LNG 16 mg, EFdA 14 mg, six macaques",≥ 14 day
same,"average concentration in PBMCs, remained detectable until day 31","[1]; MPT film LNG 16 mg, EFdA 14 mg, six macaques, day 31",0.018 pmol
same,fold shorter elimination half-life in macaques than in humans,[2],4-5 times
same,elimination half-life,[3],~40 h
same,elimination half-life,[4],190 h
"C#C[C@]1(O)CC[C@H]2[C@@H]3CCC4=CC(=O)CC[C@@H]4[C@H]3CC[C@@]21CC [LNG, levonorgestrel]",animals above BLQ,"[1]; female, macaque, in vivo",0/3
same,animals with swab levels above BLQ,"[1]; female, macaque, in vivo",2/3
same,detectable levels present in the vaginal fluid until day,"[1]; female, macaque, in vivo",31 days
same,"duration of release, vaginal swab and plasma levels","[1]; female, macaque, in vivo",30 days
same,animals above BLQ,"[1]; female, macaque, in vivo, 7 day",1/3
same,plasma half-life compared with previously reported values after oral administration,[1]; in vivo,significantly higher
"CC(C)OC(=O)[C@H](C)N[P@](=O)(OC[C@H]1O[C@@H](n2ccc(=O)[nH]c2=O)[C@](C)(F)[C@@H]1O)Oc1ccccc1 [SBV, Sofosbuvir]",drug release profile in the extended-release polymer matrix,[5],burst release
CCN1C[C@H](C)n2c(c(O)c3c(=O)n(Cc4ccc(F)c(Cl)c4)nc(C(=O)NC)c32)C1=O [MK-2048],drug release profile in the extended-release polymer matrix,[5],extended release
"C#C[C@]1(O)CC[C@H]2[C@@H]3CCC4=CC(=O)CC[C@@H]4[C@H]3C(=C)C[C@@]21CC [ENG, etonogestrel]",drug levels in vivo,[1]; in vivo,sustained drug levels
"C=C1[C@H](CO)[C@@H](O)C[C@@H]1n1cnc2c(=O)[nH]c(N)nc21 [ETV, Entecavir]",drug release profile in the extended-release polymer matrix,[5],burst release
"C#C[C@]1(CO)O[C@@H](n2cnc3c(N)nc(F)nc32)C[C@@H]1O [EFdA, 4′-Ethynyl-2-fluoro-2′-deoxyadenosine]",detectable levels present in the vaginal fluid until day,"[1]; female, macaque, in vivo",31 days
same,detected in swabs until day,"[1]; female, macaque, in vivo",31 days
same,"duration of release, vaginal swab and plasma levels","[1]; female, macaque, in vivo",30 days
same,animals above BLQ,"[1]; female, macaque, in vivo, 28 day",2/3
same,animals above BLQ,"[1]; female, macaque, in vivo, 31 day",1/3
same,drug levels in vivo,[1]; in vivo,sustained drug levels
same,plasma half-life compared with previously reported values after oral administration,[1]; in vivo,significantly higher
